# Measurements as given in patent US4180588A, “Immunosuppressant” (Mitsubishi Chemical Industries, Ltd., priority 1977, dated 1979).
# What was measured:
# [1] = tested on: human lymphocytes; experiment: Inhibition of blastogenesis of human lymphocytes induced by phytohemagglutinin (PHA), 3H-thymidine uptake; assay type: cell-based; settings: for % Inhibition (3H-thymidine uptake by PHA-stimulated lymphocytes): 72 hours
# Description: Inhibition of the blastogenesis of the human lymphocytes induced by phytohemagglutinin (PHA)
# 1.5×10^5 human lymphocytes in RPMI-1 640 medium (produced by GIBCO) supplemented with 10 wt. % fetal calf serum were incubated with 0.1 μl of PHA and in the presence or absence of N-(p-hydroxyphenyl)-L-glutamine (total volume: 0.1 ml) in a CO2 incubator at 37° C. for 72 hours. 0.1 μCi of ^3 H-thymidine was pulsed 7 hour before harvesting the cells. The lymphocytes were harvested and the radioactivity incorporated into the cells were counted.
# [2] = tested on: Daudi cells; experiment: Growth inhibition of tissue-culture cells (Daudi cells), trypane blue dye exclusion; assay type: cell-based, human
# Description: Growth inhibition of tissue-culture cells
# 2.6×10^5 /ml tissue culture cells (Daudi cells) derived from human lymphocytes in RPMI-1640 medium supplemented with 10% fetal calf serum were incubated with varied concentration of N-(p-hydroxyphenyl)-L-glutamine for 72 hours at 37° C. The number of live cells was determined by the trypane blue dye exclusion test.
# [3] = tested on: skin allograft; experiment: Prolongation of the skin allograft in rat (Fisher to Wister/MK); assay type: in vivo; settings: 25 mg/kg intraperitoneally everyday from day -7 until rejection; controls 9.0±1.6 days
# Description: Prolongation of the skin allograft in rat Wister/MK rats received skin allografts from Fisher rats on day 0.
# Recipient rats in the treatment group were administered intraperitoneally 25 mg/kg of N-(p-hydroxyphenyl)-L-glutamine dissolved in a phosphate buffer everyday from day - 7 until the day on which the rejection was observed. Rats treated with the compound rejected their grafts in 15.0±1.7 days, while controls rejected in 9.0±1.6 days.
# [4] = tested on: plaque forming cells in the spleen; experiment: Plaque forming cells in the spleen of mice immunized with sheep blood cells (modified Cunningham's method); assay type: in vivo, mice (ddY); settings: for PFC (No. of PFC ± S.E.): 5 animals, day 4, untreated 163 ± 64
# [5] = tested on: nucleated cells in the spleen; experiment: Total number of nucleated cells in the spleen of immunized mice; assay type: in vivo, mice (ddY); settings: for Number of nucleated cells (No. of lymphocytes ± S.E.): 5 animals, day 4, untreated 228 ± 18.8
# Description: Effect of N-(p-hydroxyphenyl)-L-glutamine on the total number of nucleated cells and the plaque forming cells in the spleen
# The mice (ddY, 18 to 21 g) were intraperitoneally immunized with 1×10^8 sheep blood cells. The N-(p-hydroxyphenyl)-L-glutamine was administered subcutaneously on day 0, 1, 2 and 3. On day 4, the mice were sacrificed and the plaque forming cells in the spleen were determined according to the modified Cunningham's method (H. Fujiwara et al.; Experimental Method of Immunology Vol. 5, 1475 (1975)).
# Total number of the nucleated cells in the spleen were counted after lysing erythrocytes with 0.5% acetic acid.
# [6] = Acute toxicity (mortality 7 days after intraperitoneal administration); assay type: in vivo, mice; settings: mouse, in vivo, ip, mice, intraperitoneal
# Text: (§1) The varied doses of N-(p-hydroxyphenyl)-L-glutamine in an aqueous 5% sodium carboxymethyl cellulose solution were intraperitoneally administered to the mice. The mortality 7 days after the administration was as follows: […]
# [7] = tested on: mice; experiment: as above; assay type: in vivo
# Text: as §1
# [8] = Cytotoxic effect on the murine spleen cells, trypane-blue dye exclusion; assay type: cell-based; settings: mouse, spleen cells, 48 hours, 86 at 0
# Description: (§2) Cytotoxic effect on the murine spleen cells 1×10^6 /ml murine spleen cells in RPMI-1640 medium supplemented with 5% fetal calf serum were incubated with a varied concentration of N-(p-hydroxyphenyl)-L-glutamine for 48 hours at 37° C. And then the viability of the cells was determined by the trypane-blue dye exclusion test.
# [9] = tested on: murine spleen cells; experiment: as above; assay type: cell-based; settings: within the range of the concentration tested
# Description: as §2
# [10] = tested on: Adjuvant arthritis in rats; experiment: Adjuvant arthritis in rats (hind foot volume); assay type: in vivo, Sprague-Dawley rats; settings: day 1 until day 21
# Description: Effect of N-(p-hydroxyphenyl)-L-glutamine on Adjuvant arthritis in rats
# Sprague-Dawley rats weighing 150 to 180 g were randomized in 6 groups and kept in a controlled evironment for 2 weeks prior to use. They were fed a standard diet and were allowed to drink water freely ad libitum.
# On day 0, each rat was injected in the planter region of the right hind paw with 0.05 ml Freund's Complete Adjuvant containing 6 mg/ml of heat killed Mycobacterium butyricum (Difco) in sterile paraffin oil.
# The volume of the injected (right) and non-injected (left) feet up to a mark on the tibio-tarsal joint was measured by water over-flow method.
# The sensitized rats were dosed subcutaneously from day 1 until day 21 with either 12.5, 25, or 50 mg/kg of N-(p-hydroxyphenyl)-L-glutamine (γ-GHB), 2.5 mg/kg of prednisolone, and vehicle for control group.
# [11] = 50 mg/kg subcutaneously on day 0, 1, 2 and 3
# [12] = 100 mg/kg subcutaneously on day 0, 1, 2 and 3
# [13] = 12.5, 25 or 50 mg/kg subcutaneously
smiles,measurement,setting,value
N[C@@H](CCC(=O)Nc1ccc(O)cc1)C(=O)O,inhibition of PHA-induced blastogenesis (in words),[1]; 40 μg/ml,complete inhibition
same,"inhibition of PHA-induced blastogenesis, delayed addition (in words)","[1]; 40 μg/ml added 0, 12, 24 and 48 hours after PHA stimulation",almost complete inhibition
same,% Inhibition (3H-thymidine uptake by PHA-stimulated lymphocytes),[1]; 0.04 μ/ml,14%
same,% Inhibition (3H-thymidine uptake by PHA-stimulated lymphocytes),[1]; 0.4 μ/ml,27%
same,% Inhibition (3H-thymidine uptake by PHA-stimulated lymphocytes),[1]; 4 μ/ml,67%
same,% Inhibition (3H-thymidine uptake by PHA-stimulated lymphocytes),[1]; 40 μ/ml,99%
same,inhibition at 40 µg/mL,"[2]; Homo sapiens, Daudi, 40 μg/ml",~90%
same,live cell growth (% of control) at 400 µg/mL,"[2]; Homo sapiens, Daudi, 400 μg/ml, 72 hours, read-out: Inhibition (%) (Control equals 100)",0%
same,growth inhibition with delayed addition (in words),[2]; addition delayed from 24 hours to 48 hours after start of incubation,gradually decreased
same,growth inhibition with exposure for first 24 hours only (in words),[2]; present for first 24 hours of 72 hours incubation,did not exhibit any growth inhibition
same,time to rejection of skin graft,[3],15.0 ± 1.7 days
same,production of plaque forming cells (in words),[4]; 50 mg/kg,significantly inhibited
same,PFC (No. of PFC ± S.E.),[4]; [11],65.6 ± 9.5 × 10^3 /spleen
same,PFC (No. of PFC ± S.E.),[4]; [12],65.3 ± 14.0 × 10^3 /spleen
same,total number of the nucleated cells in the spleen (in words),[5]; 50 mg/kg,did not affect
same,Number of nucleated cells (No. of lymphocytes ± S.E.),[5]; [11],176 ± 13.7 × 10^6 /spleen
same,Number of nucleated cells (No. of lymphocytes ± S.E.),[5]; [12],226 ± 39.1 × 10^6 /spleen
same,LD50 at 168 h,[6],> 5000 mg/kg
same,No. of dead mice/No. of treated mice,[7]; 1.768 g/kg intraperitoneally,0/5
same,No. of dead mice/No. of treated mice,[7]; 2.5 g/kg intraperitoneally,0/5
same,No. of dead mice/No. of treated mice,[7]; 3.535 g/kg intraperitoneally,1/5
same,No. of dead mice/No. of treated mice,[7]; 5 g/kg intraperitoneally,2/5
same,No. of dead mice/No. of treated mice,[7]; 10 g/kg intraperitoneally,1/1
same,viability at 48 h,[8]; concentration 10 (unit inferred),83%
same,viability at 48 h,[8]; concentration 100 (unit inferred),87%
same,cytotoxic effect on the murine spleen cells (in words),[9],did not exhibit any cytotoxic effect
same,left (non-injected) hind foot swelling (in words),[10]; [13],reduced significantly
same,right (injected) hind foot swelling (in words),[10]; [13],reduced significantly
"C[C@]12C=CC(=O)C=C1CC[C@@H]1[C@@H]2[C@@H](O)C[C@@]2(C)[C@H]1CC[C@]2(O)C(=O)CO [prednisolone, reference compound]",left (non-injected) hind foot swelling (in words),[10]; 2.5 mg/kg subcutaneously,reduced significantly
same,right (injected) hind foot swelling (in words),[10]; 2.5 mg/kg subcutaneously,reduced significantly
"Sc1ncnc2nc[nH]c12 [6-Mercaptopurine, reference compound]",PFC (No. of PFC ± S.E.),[4]; 25 mg/kg,18.8 ± 7.9 × 10^3 /spleen
same,Number of nucleated cells (No. of lymphocytes ± S.E.),[5]; 25 mg/kg,78 ± 9.5 × 10^6 /spleen
